Assay results as given in patent US6261997A, “Slow release formulations of pesticides” (Yissum Research Development Company of the Hebrew …, priority 1996, dated 2001).

Key:
[1] = system: green foxtail; test: Laboratory soil column leaching bioassay (growth inhibition of sensitive test plants at soil depths); assay type: in vivo, green foxtail (setaria); wheat also sown; settings: laboratory and field experiments
Experimental: 1. Under laboratory and field conditions, the following bioassay column technique was used to evaluate the leaching of the herbicide using sensitive plants to the given herbicide. Briefly, the experiments have used 100×100×200 mm tin columns filled with soil. The column surface is sprayed with either the commercial formulation of the herbicide or with the organoclay formulated herbicide. The herbicide is added at the same amounts as in the field applications, i.e., 200 g of the active ingredient per 1000 m^2. Then the columns are irrigated with 50 m^3 /[…]. The water is added throughout 5 hours. The columns are left for 24 hr and then sliced along their lengths into two parts (right and left). Two plants, setaria and wheat were sown in each part in two rows and irrigated with water. The height and the weight of the plants 7 days after emergence are used as an indicator of the presence of herbicide at different depths in the soil column.
Alachlor was applied at 2.0 kg/ha followed by irrigation of 500 m^3 /ha. bars indicate standard errors.
Green foxtail growth was used to estimate the presence of matolachlor. Metolachlor formulations were commercial formulation (comm.); metolachlor on clay alone (Mont); metolachlor on clay pre-absorbed with BTMA 0.5 mole/kg clay. The clay based formulations contained 13% metolachlor. […] Bars indicate standard errors.
Green foxtail growth was used to estimate the presence of matolachlor. Metolachlor formulations were commercial formulation (comm.); metolachlor on clay pre-absorbed with PTMA 0.5 mole/kg clay. The clay based formulations contained 13% metolachlor. […] Bars indicate standard errors.

[2] = Adsorption isotherms of herbicide on montmorillonite pre-adsorbed by organic cations; assay type: physicochemical; settings: for adsorption on montmorillonite pre adsorbed by organic cations: FIGS. 1A and 1B
Experimental: A suitable concentrated solution of the organic cation is added dropwise to a 0.5 or 1% W/W of clay suspension (e.g. Montmorillonite; Sepiolite; Palygorskite; Pillared clays). After separation of the supernatant, the organoclay complex is dried and ground to less than 50 μm. The herbicide is dissolved in a suitable volatile organic solvent e.g. hexane, dichloro methane, acetone, and mixed with the solid organoclay in weight relations of 5-20 g of herbicide to 95-80 g organoclay. The organic solvent is evaporated under gentle reduced pressure and continuous mixing and the resulting herbicide-organoclay complex is ground to less than 50 μm. The pesticide formulation can be further improved by adding water or another solvent to the dried material; removing the loosely bound pesticide, and drying again.
BTMS 0.8 mole/kg, BTEA 0.8 mole/kg, BTEA 0.5 mole/kg or HDTMA 0.5 mole/kg clay. Bars indicate standard errors.

Compound	inhibition of movement / leaching of the herbicide in the soil profile [1]	adsorption on montmorillonite pre adsorbed by organic cations [2]	adsorption on montmorillonite preadsorbed by PTMA ([2]; PTMA 0.5 mmol/g clay)
CCCC[N+](CCCC)(CCCC)Cc1ccccc1.[Cl-] [BTBA, benzyl tributyl ammonium chloride]	significant inhibition of herbicide leaching has been achieved		
CC[N+](CC)(CC)Cc1ccccc1.[Br-] [BTEA, benzyltriethyl ammonium bromide]	significant inhibition of herbicide leaching has been achieved		
C[N+](C)(C)Cc1ccccc1.[Cl-] [BTMA, benzyltrimethyl ammonium chloride]	significant inhibition of herbicide leaching has been achieved		
CCOCN(C(=O)CCl)c1c(C)cccc1CC [acetochlor]	The same trend was also found	enhanced adsorption	Enhanced adsorption
CCc1cccc(CC)c1N(COC)C(=O)CCl [alachlor]		enhanced adsorption	
CNc1cnn(-c2cccc(C(F)(F)F)c2)c(=O)c1Cl [norflurazon]	The same trend was also found		
